Experimental data as given in patent publication US20220317138A1, “METHODS FOR DETERMINING THE CONCENTRATION OF A CARBAPENEM ANTIBIOTIC IN A BIOLOGICAL SAMPLE” (priority 2019, published 2022).
Read-outs that look alike come from different tables or passages of the source. Numbered stars: 1 amine (or outer) side, 2 acyl side, 3 side chain; on linkers, the order of the positions; unused ones are H or OH. Bridge positions count the residues as written; N and C are the ends. Square brackets hold non-standard residues; d marks the D form. Peptide text beside a SMILES is read from it. * marks the point of attachment. pTerphenylCO(4''-OnC5H11) = CCCCCOc1ccc(-c2ccc(-c3ccc(C(=O)*)cc3)cc2)cc1; Orn(4R-OH,5R-OH) = O=C([C@H](C[C@@H](O)[C@@H](O)N[*:3])N[*:1])[*:2]; hTyr(3S-OH,4S-OH) = N[C@H](C(=O)O)[C@H](O)[C@@H](O)c1ccc(O)cc1; Pro(3S-OH,4S-Me) = C[C@H]1CN[C@H](C(=O)O)[C@H]1O; Hyp = O=C(O)[C@@H]1C[C@@H](O)CN1

Biological target: beta-lactamase class D OXA-48 (Klebsiella pneumoniae, UniProt Q6XEC0)
Assay type: biochemical
Details: for Average [meropenem]: average of three replicates
[1] = second drug alone in ultrafiltrated serum at 10 times recommended blood concentration, result expressed as meropenem concentration, theoretically zero
[2] = second drug alone in ultrafiltrated serum at 10 times recommended blood concentration, result expressed as meropenem concentration, theoretically zero, replicate 1
[3] = second drug alone in ultrafiltrated serum at 10 times recommended blood concentration, result expressed as meropenem concentration, theoretically zero, replicate 2
[4] = second drug alone in ultrafiltrated serum at 10 times recommended blood concentration, result expressed as meropenem concentration, theoretically zero, replicate 3
[5] = second drug alone in ultrafiltrated serum at 10 times recommended blood concentration, […]

Compound | Average [meropenem] [1] [mg/L] | [meropenem] (mg/L) Replicates 1 [2] [mg/L] | [meropenem] (mg/L) Replicates 2 [3] [mg/L] | [meropenem] (mg/L) Replicates 3 [4] [mg/L] | [meropenem] (mg/L) Replicates 1 [mg/L] | [meropenem] (mg/L) Replicates 2 [mg/L] | [meropenem] (mg/L) Replicates 3 [mg/L] | Average [meropenem] [5] [mg/L] | interference with the method
CNCC(O)c1ccc(O)c(O)c1 (stereo not drawn) [Adrenaline] | -0.10 | 0.06 | -0.37 | 0.00 |  |  |  |  | 
CCCCCOc1ccc(-c2ccc(-c3ccc(C(=O)N[C@H]4C[C@@H](O)[C@@H](O)NC(=O)[C@@H]5[C@@H](O)[C@@H](C)CN5C(=O)[C@H]([C@@H](C)O)NC(=O)[C@H]([C@H](O)[C@@H](O)c5ccc(O)cc5)NC(=O)[C@@H]5C[C@@H](O)CN5C(=O)[C@H]([C@@H](C)O)NC4=O)cc3)cc2)cc1 [Anidulafungin] ({pTerphenylCO(4''-OnC5H11)}-[Orn(4R-OH,5R-OH)]T[Hyp][hTyr(3S-OH,4S-OH)]T[Pro(3S-OH,4S-Me)]; lactam 1-C) |  |  |  |  | 0.09 | 0.06 | 0.14 | 0.10 | 
[Ca+2].[Cl-].[Cl-] [Calciclo] |  |  |  |  | 0.05 | -0.04 | -0.09 | -0.03 | 
CC[C@H](C)C[C@H](C)CCCCCCCCC(=O)N[C@H]1C[C@@H](O)[C@@H](NCCN)NC(=O)[C@@H]2[C@@H](O)CCN2C(=O)[C@H]([C@H](O)CCN)NC(=O)[C@H]([C@H](O)[C@@H](O)c2ccc(O)cc2)NC(=O)[C@@H]2C[C@@H](O)CN2C(=O)[C@H]([C@@H](C)O)NC1=O [Caspofungin] |  |  |  |  | 0.03 | 0.06 | 0.07 | 0.05 | 
O=C1CN=C(c2ccccc2Cl)c2cc([N+](=O)[O-])ccc2N1 [Clonazepam] | 0.05 | 0.06 | 0.06 | 0.01 |  |  |  |  | 
CCCCc1oc2ccccc2c1C(=O)c1cc(I)c(OCCN(CC)CC)c(I)c1 [Cordarone] | -0.16 | -0.16 | -0.15 | -0.18 |  |  |  |  | 
CCCC(CCC)C(=O)[O-].[Na+] [Dapakine] |  |  |  |  | -0.10 | -0.10 | -0.09 | -0.09 | 
CN1C(=O)CN=C(c2ccccc2)c2cc(Cl)ccc21 [Diazepam] | 0.03 | 0.05 | 0.04 | 0.01 |  |  |  |  | 
O=C1NC(=O)C(c2ccccc2)(c2ccccc2)N1 [Diphantoïne] |  |  |  |  | -0.15 | -0.11 | 0.02 | -0.08 | 
CC(CCc1ccc(O)cc1)NCCc1ccc(O)c(O)c1 (stereo not drawn) [Dobutrex] | -0.11 | -0.07 | -0.11 | -0.14 |  |  |  |  | 
NCCc1ccc(O)c(O)c1 [Dopamine] | -0.06 | -0.05 | -0.06 | -0.07 |  |  |  |  | 
OC(Cn1cncn1)(Cn1cncn1)c1ccc(F)cc1F [Fluconazole] | 0.07 | 0.02 | 0.10 | 0.11 |  |  |  |  | 
CC[C@@H](C(N)=O)N1CCCC1=O [Keppra] | -0.07 | -0.07 | -0.07 | -0.06 |  |  |  |  | 
NS(=O)(=O)c1cc(C(=O)O)c(NCc2ccco2)cc1Cl [Lasix] | -0.12 | -0.13 | -0.15 | -0.09 |  |  |  |  | 
Cc1ncc2n1-c1ccc(Cl)cc1C(c1ccccc1F)=NC2 [Midazolam Braun] |  |  |  |  | -0.07 | -0.09 | -0.06 | -0.07 | 
Cc1[nH]c(=O)c(C#N)cc1-c1ccncc1 [Milrinone] | 0.09 | 0.14 | 0.06 | 0.06 |  |  |  |  | 
CN1CC[C@]23c4c5ccc(O)c4O[C@H]2[C@@H](O)C=C[C@H]3[C@H]1C5 [Morphine] | -0.13 | -0.12 | -0.15 | -0.10 |  |  |  |  | 
COc1ccc(C[C@@H]2c3cc(OC)c(OC)cc3CC[N@+]2(C)CCC(=O)OCCCCCOC(=O)CC[N@@+]2(C)CCc3cc(OC)c(OC)cc3[C@H]2Cc2ccc(OC)c(OC)c2)cc1OC [Nimbex] | -0.03 | 0.01 | -0.04 | -0.08 |  |  |  |  | 
NC[C@H](O)c1ccc(O)c(O)c1 [Noradrenaline] | -0.11 | -0.12 | -0.12 | -0.08 |  |  |  |  | 
COc1ccnc(C[S+]([O-])c2nc3cc(OC(F)F)ccc3[nH]2)c1OC (stereo not drawn) [Pantomed] |  |  |  |  | 0.02 | 0.01 | -0.05 | -0.01 | 
C=CC[C@@H]1/C=C(\C)C[C@H](C)C[C@H](OC)[C@H]2O[C@@](O)(C(=O)C(=O)N3CCCC[C@H]3C(=O)O[C@H](/C(C)=C/[C@@H]3CC[C@@H](O)[C@H](OC)C3)[C@H](C)[C@@H](O)CC1=O)[C@H](C)C[C@@H]2OC.O [Prograft] |  |  |  |  | -0.07 | -0.06 | -0.02 | -0.05 | 
COC(=O)C1=C(C)NC(C)=C(C(=O)OCCN(C)Cc2ccccc2)C1c1cccc([N+](=O)[O-])c1 (stereo not drawn) [Rydene] | 0.04 | 0.06 | 0.00 | 0.06 |  |  |  |  | 
CC(C)(C)NCC(O)c1ccc(O)c(CO)c1 (stereo not drawn) [Salbutamol] | 0.09 | 0.16 | 0.07 | 0.05 |  |  |  |  | 
C[C@H]1C[C@@H]2[C@H]([C@@H](O)C[C@@]3(C)[C@H]2CC[C@]3(O)C(=O)COC(=O)CCC(=O)O)[C@@]2(C)C=CC(=O)C=C12 [Solu-Medrol] | 0.01 | -0.01 | 0.02 | 0.01 |  |  |  |  | 
C[C@]12CCC(=O)C=C1CC[C@@H]1[C@@H]2[C@@H](O)C[C@@]2(C)[C@H]1CC[C@]2(O)C(=O)COC(=O)CCC(=O)O [Solu-cortef] | -0.03 | -0.10 | 0.02 | 0.00 |  |  |  |  | 
CCC1(CC)C(=O)NC(=S)NC1=O [Thiobarbital] | 0.10 | 0.12 | 0.11 | 0.09 |  |  |  |  | 
C[C@@H](c1ncncc1F)[C@](O)(Cn1cncn1)c1ccc(F)cc1F [Voriconazole] | 0.01 | 0.00 | -0.06 | 0.10 |  |  |  |  | 
Actrapid |  |  |  |  | 0.04 | 0.04 | 0.06 | 0.05 | 
protamine |  |  |  |  | 0.64 | 0.69 | 0.72 | 0.68 | excepted for protamine
